We go through 5 molecules from patent US8741836B2, “Polypeptides” (Novo Nordisk A/S, priority 2011, dated 2014).

Starred links: 1 amine or outer side, 2 acyl side, 3 side chain; linkers in the order of their positions; H or OH if unused. Positions of bridges follow the written chain, without caps; N, C: chain ends. Residues, ends and D or L forms follow the SMILES beside them. *: point of attachment. C20 diacid = O=C(O)CCCCCCCCCCCCCCCCCCC(=O)*; C18 diacid = O=C(O)CCCCCCCCCCCCCCCCC(=O)*; γGlu = O=C(O)[C@H](CCC(=O)[*:2])N[*:1]

The assay has as its system ad libitum fed rat. Description: Assay (I) efficacy testing on appetite (food intake) using an ad libitum fed rat model. It counts as in vivo, Sprague Dawley (SD) rats. The following applies: 3 nmol/kg. The source says:
In the following examples reference is made to the following Assays: • Assay (I)—Experimental protocol for efficacy testing on appetite using an ad libitum fed rat model • ASSAY (II)a—Functional assay—Human calcitonin and amylin receptor assay • ASSAY (II)b—Functional assay—Rat calcitonin and rat amylin receptor assays • ASSAY (III)—ThT fibrillation assays for the assessment of physical stability of protein formulations • ASSAY (IV)—Determination of solubility • ASSAY (V)—Determination of binding to the human amylin receptor • ASSAY (VI)—Determination of the binding to the rat amylin receptor • ASSAY (VII)—Determination of binding to the human calcitonin receptor • ASSAY (VIII)—Determination of binding to the rat calcitonin receptor • ASSAY (IX)—pK—Determination of T½ in mini-pig • ASSAY (X)—pK—Determination of T½ in rat Assay (I)—Experimental protocol for Efficacy Testing on Appetite Using an Ad Libitum Fed Rat Model
Sprague Dawley (SD) rats from Taconic Europe, Denmark are used for the experiments. The rats have a body weight 200-250 g at the start of experiment. The rats arrive at least 10-14 days before start of experiment to allow acclimatization to experimental settings. During this period the animals are handled at least 2 times. After arrival rats are housed individually for one week in a reversed light/dark phase (meaning that lights are off during daytime and on during nighttime) […]. Since rats are normally active and eat their major part of their daily food intake during the dark period, rats are dosed in the morning right before lights are turned off. This set-up results in the lowest data variation and highest test sensitivity. The experiment is conducted in the rats' home cages and rats have free access to food and water throughout the acclimatization period and the experiment period. Each dose of derivative is tested in a group of 5-8 rats. A vehicle group of 6-8 rats is included in each set of testing. Rats are dosed once according to body weight with a 0.01-3 mg/kg solution administered intraperitoneally (ip), orally (po) or subcutaneously (sc). The time of dosing is recorded for each group. After dosing, the rats are returned to their home cages, where they then have access to food and water. The food consumption is recorded individually continuously by on-line registration or manually every hour for 7 hours, and then after 24 h and sometimes 48 h. At the end of the experimental session, the animals are euthanised.
The individual data are recorded in Microsoft excel sheets. Outliers are excluded after applying the Grubbs statistical evaluation test for outliers, and the result is presented graphically using the GraphPad Prism program.

As to `CC[C@H](C)[C@H](NC(=O)[C@@H]1CCCN1C(=O)CNC(=O)[C@H](Cc1ccccc1)NC(=O)[C@H](CC(N)=O)NC(=O)[C@H](CC(N)=O)NC(=O)[C@H](CO)NC(=O)[C@H](CO)NC(=O)[C@H](Cc1c[nH]cn1)NC(=O)[C@H](Cc1c[nH]cn1)NC(=O)[C@H](CC(C)C)NC(=O)[C@H](Cc1ccccc1)NC(=O)[C@H](CCC(=O)O)NC(=O)[C@H](C)NC(=O)[C@H](CC(C)C)NC(=O)[C@H](CCCNC(=N)N)NC(=O)[C@H](CCC(N)=O)NC(=O)[C@@H](NC(=O)[C@H](C)NC(=O)[C@@H]1CSSC[C@H](NC(=O)[C@H](CCCCN)NC(=O)[C@H](CCC(=O)O)NC(=O)CC[C@H](NC(=O)CCCCCCCCCCCCCCCCC(=O)O)C(=O)O)C(=O)N[C@@H](CC(N)=O)C(=O)N[C@@H]([C@@H](C)O)C(=O)N[C@@H](C)C(=O)N[C@@H]([C@@H](C)O)C(=O)N1)[C@@H](C)O)C(=O)N[C@@H](CC(C)C)C(=O)N1CCC[C@H]1C(=O)N1CCC[C@H]1C(=O)N[C@H](C(=O)N[C@@H](CC(N)=O)C(=O)N[C@H](C(=O)NCC(=O)N[C@@H](CO)C(=O)N[C@@H](CC(N)=O)C(=O)N[C@H](C(=O)N[C@@H](Cc1ccc(O)cc1)C(N)=O)[C@@H](C)O)C(C)C)[C@@H](C)O` [Example 42, N-alpha-[(S)-4-Carboxy-4-(17-carboxyheptadecanoylamino)butyryl]-Glu-[Glu14,His17]-pramlintide] ({C18 diacid-γGlu}-EKCNTATCATQRLAEFLHHSSNNFGPILPPTNVGSNTY-NH2; disulfide 3-8), the “Food intake reduction 0-24 h 3 nmol/kg (%)” value came out at 45% and the “Food intake reduction 24-48 h 3 nmol/kg (%)” value is 5%.

Consider `CC[C@H](C)[C@H](NC(=O)[C@@H]1CCCN1C(=O)CNC(=O)[C@H](Cc1ccccc1)NC(=O)[C@H](CC(N)=O)NC(=O)[C@H](CC(N)=O)NC(=O)[C@H](CO)NC(=O)[C@H](CO)NC(=O)[C@H](Cc1c[nH]cn1)NC(=O)[C@H](Cc1c[nH]cn1)NC(=O)[C@H](CC(C)C)NC(=O)[C@H](Cc1ccccc1)NC(=O)[C@H](CCC(=O)O)NC(=O)[C@H](C)NC(=O)[C@H](CC(C)C)NC(=O)[C@H](CCCNC(=N)N)NC(=O)[C@H](CCC(N)=O)NC(=O)[C@@H](NC(=O)[C@H](C)NC(=O)[C@@H]1CSSC[C@H](NC(=O)CC[C@H](NC(=O)CCCCCCCCCCCCCCCCCCC(=O)O)C(=O)O)C(=O)N[C@@H](CC(N)=O)C(=O)N[C@@H]([C@@H](C)O)C(=O)N[C@@H](C)C(=O)N[C@@H]([C@@H](C)O)C(=O)N1)[C@@H](C)O)C(=O)N[C@@H](CC(C)C)C(=O)N1CCC[C@H]1C(=O)N1CCC[C@H]1C(=O)N[C@H](C(=O)N[C@@H](CC(N)=O)C(=O)N[C@H](C(=O)NCC(=O)N[C@@H](CO)C(=O)N[C@@H](CC(N)=O)C(=O)N[C@H](C(=O)N[C@@H](Cc1ccc(O)cc1)C(N)=O)[C@@H](C)O)C(C)C)[C@@H](C)O` [Example 28, N-alpha-[(S)-4-Carboxy-4-(19-carboxynonadecanoylamino)butyryl]-[des1,Glu14,His17]-pramlintide] ({C20 diacid-γGlu}-CNTATCATQRLAEFLHHSSNNFGPILPPTNVGSNTY-NH2; disulfide 1-6), for which the “Food intake reduction 0-24 h 3 nmol/kg (%)” value is listed as 39% and the “Food intake reduction 24-48 h 3 nmol/kg (%)” value is recorded as 36%.

With `CC[C@H](C)[C@H](NC(=O)[C@@H]1CCCN1C(=O)CNC(=O)[C@H](Cc1ccccc1)NC(=O)[C@H](CC(N)=O)NC(=O)[C@H](CC(N)=O)NC(=O)[C@H](CO)NC(=O)[C@H](CO)NC(=O)[C@H](Cc1c[nH]cn1)NC(=O)[C@H](Cc1c[nH]cn1)NC(=O)[C@H](CC(C)C)NC(=O)[C@H](Cc1ccccc1)NC(=O)[C@H](CCC(=O)O)NC(=O)[C@H](C)NC(=O)[C@H](CC(C)C)NC(=O)[C@H](CCCNC(=N)N)NC(=O)[C@H](CCC(N)=O)NC(=O)[C@@H](NC(=O)[C@H](C)NC(=O)[C@@H]1CSSC[C@H](NC(=O)[C@H](CCCCN)NC(=O)[C@H](CCC(=O)O)NC(=O)CC[C@H](NC(=O)CCCCCCCCCCCCCCCCCCC(=O)O)C(=O)O)C(=O)N[C@@H](CC(N)=O)C(=O)N[C@@H]([C@@H](C)O)C(=O)N[C@@H](C)C(=O)N[C@@H]([C@@H](C)O)C(=O)N1)[C@@H](C)O)C(=O)N[C@@H](CC(C)C)C(=O)N1CCC[C@H]1C(=O)N1CCC[C@H]1C(=O)N[C@H](C(=O)N[C@@H](CC(N)=O)C(=O)N[C@H](C(=O)NCC(=O)N[C@@H](CO)C(=O)N[C@@H](Cc1c[nH]cn1)C(=O)N[C@H](C(=O)N[C@@H](Cc1ccc(O)cc1)C(N)=O)[C@@H](C)O)C(C)C)[C@@H](C)O` [Example 56, N-alpha-[(S)-4-Carboxy-4-(19-carboxynonadecanoylamino)butyryl]-Glu-[Glu14,His17,His35]-pramlintide] ({C20 diacid-γGlu}-EKCNTATCATQRLAEFLHHSSNNFGPILPPTNVGSHTY-NH2; disulfide 3-8), the “Food intake reduction 0-24 h 3 nmol/kg (%)” value turned out to be 46% and the “Food intake reduction 24-48 h 3 nmol/kg (%)” value came out at 21%.

On to `CC[C@H](C)[C@H](NC(=O)[C@@H]1CCCN1C(=O)CNC(=O)[C@H](Cc1ccccc1)NC(=O)[C@H](CC(N)=O)NC(=O)[C@H](CC(N)=O)NC(=O)[C@H](CO)NC(=O)[C@H](CO)NC(=O)[C@H](Cc1c[nH]cn1)NC(=O)[C@H](Cc1c[nH]cn1)NC(=O)[C@H](CC(C)C)NC(=O)[C@H](Cc1ccccc1)NC(=O)[C@H](CCC(=O)O)NC(=O)[C@H](C)NC(=O)[C@H](CC(C)C)NC(=O)[C@H](CCCNC(=N)N)NC(=O)[C@H](CCC(N)=O)NC(=O)[C@@H](NC(=O)[C@H](C)NC(=O)[C@@H]1CSSC[C@H](NC(=O)[C@H](Cc2c[nH]cn2)NC(=O)[C@H](Cc2c[nH]cn2)NC(=O)[C@H](Cc2c[nH]cn2)NC(=O)CC[C@H](NC(=O)CCCCCCCCCCCCCCCCCCC(=O)O)C(=O)O)C(=O)N[C@@H](CCCNC(=N)N)C(=O)N[C@@H]([C@@H](C)O)C(=O)N[C@@H](C)C(=O)N[C@@H]([C@@H](C)O)C(=O)N1)[C@@H](C)O)C(=O)N[C@@H](CC(C)C)C(=O)N1CCC[C@H]1C(=O)N1CCC[C@H]1C(=O)N[C@H](C(=O)N[C@@H](CC(N)=O)C(=O)N[C@H](C(=O)NCC(=O)N[C@@H](CO)C(=O)N[C@@H](CC(N)=O)C(=O)N[C@H](C(=O)N[C@@H](Cc1ccc(O)cc1)C(N)=O)[C@@H](C)O)C(C)C)[C@@H](C)O` [Example 22, N-alpha-[(S)-4-Carboxy-4-(19-carboxynonadecanoylamino)butyryl]-His-His-[His1,Arg3,Glu14,His17]-pramlintide] ({C20 diacid-γGlu}-HHHCRTATCATQRLAEFLHHSSNNFGPILPPTNVGSNTY-NH2; disulfide 4-9 (inferred)), for which the “Food intake reduction 0-24 h 3 nmol/kg (%)” value came out at 26% and the “Food intake reduction 24-48 h 3 nmol/kg (%)” value is on record as 5%.

Regarding `CC[C@H](C)[C@H](NC(=O)[C@H](CCC(=O)O)NC(=O)CNC(=O)[C@H](Cc1ccccc1)NC(=O)[C@H](CC(N)=O)NC(=O)[C@H](CC(N)=O)NC(=O)[C@H](CO)NC(=O)[C@H](CO)NC(=O)[C@H](CCCNC(=N)N)NC(=O)[C@H](Cc1c[nH]cn1)NC(=O)[C@H](CC(C)C)NC(=O)[C@H](Cc1ccccc1)NC(=O)[C@H](CCC(=O)O)NC(=O)[C@H](C)NC(=O)[C@H](CC(C)C)NC(=O)[C@H](CCCNC(=N)N)NC(=O)[C@H](CCC(N)=O)NC(=O)[C@@H](NC(=O)[C@H](C)NC(=O)[C@@H]1CSSC[C@H](NC(=O)[C@H](Cc2c[nH]cn2)NC(=O)CC[C@H](NC(=O)CCCCCCCCCCCCCCCCCCC(=O)O)C(=O)O)C(=O)N[C@@H](CC(N)=O)C(=O)N[C@@H]([C@@H](C)O)C(=O)N[C@@H](C)C(=O)N[C@@H]([C@@H](C)O)C(=O)N1)[C@@H](C)O)C(=O)N[C@@H](CC(C)C)C(=O)N[C@@H](CO)C(=O)N[C@@H](CCCNC(=N)N)C(=O)N[C@H](C(=O)N[C@@H](CC(N)=O)C(=O)N[C@H](C(=O)NCC(=O)N[C@@H](CO)C(=O)N[C@@H](CC(N)=O)C(=O)N[C@H](C(=O)N[C@@H](Cc1ccc(O)cc1)C(N)=O)[C@@H](C)O)C(C)C)[C@@H](C)O` [Example 7, N-alpha-[(S)-4-Carboxy-4-(19-carboxynonadecanoylamino)butyryl]-[His1,Glu14,His17,Arg18,Glu25,Ser28,Arg29]-pramlintide] ({C20 diacid-γGlu}-HCNTATCATQRLAEFLHRSSNNFGEILSRTNVGSNTY-NH2; disulfide 2-7 (inferred)), the “Food intake reduction 0-24 h 3 nmol/kg (%)” value is 53% and the “Food intake reduction 24-48 h 3 nmol/kg (%)” value turned out to be 46%.
